According to US8796259B2, “N3-heteroaryl substituted triazoles and N5-heteroaryl substituted triazoles useful as axl inhibitors” (Rigel Pharmaceuticals, Inc., priority 2006, dated 2014):

Each compound was assayed against T1, Axl (Homo sapiens, UniProt P30530) (assay: Phospho-Akt in-cell Western assay (inhibition of Axl activity, Axl-antibody cross-linking stimulation)). Conditions: Hela cells, phospho-Akt readout; compounds of formula (Ia), Table 1.
T1 construct: endogenous in cells; host or cells: HeLa cells
T1 sequence (P30530 26-894): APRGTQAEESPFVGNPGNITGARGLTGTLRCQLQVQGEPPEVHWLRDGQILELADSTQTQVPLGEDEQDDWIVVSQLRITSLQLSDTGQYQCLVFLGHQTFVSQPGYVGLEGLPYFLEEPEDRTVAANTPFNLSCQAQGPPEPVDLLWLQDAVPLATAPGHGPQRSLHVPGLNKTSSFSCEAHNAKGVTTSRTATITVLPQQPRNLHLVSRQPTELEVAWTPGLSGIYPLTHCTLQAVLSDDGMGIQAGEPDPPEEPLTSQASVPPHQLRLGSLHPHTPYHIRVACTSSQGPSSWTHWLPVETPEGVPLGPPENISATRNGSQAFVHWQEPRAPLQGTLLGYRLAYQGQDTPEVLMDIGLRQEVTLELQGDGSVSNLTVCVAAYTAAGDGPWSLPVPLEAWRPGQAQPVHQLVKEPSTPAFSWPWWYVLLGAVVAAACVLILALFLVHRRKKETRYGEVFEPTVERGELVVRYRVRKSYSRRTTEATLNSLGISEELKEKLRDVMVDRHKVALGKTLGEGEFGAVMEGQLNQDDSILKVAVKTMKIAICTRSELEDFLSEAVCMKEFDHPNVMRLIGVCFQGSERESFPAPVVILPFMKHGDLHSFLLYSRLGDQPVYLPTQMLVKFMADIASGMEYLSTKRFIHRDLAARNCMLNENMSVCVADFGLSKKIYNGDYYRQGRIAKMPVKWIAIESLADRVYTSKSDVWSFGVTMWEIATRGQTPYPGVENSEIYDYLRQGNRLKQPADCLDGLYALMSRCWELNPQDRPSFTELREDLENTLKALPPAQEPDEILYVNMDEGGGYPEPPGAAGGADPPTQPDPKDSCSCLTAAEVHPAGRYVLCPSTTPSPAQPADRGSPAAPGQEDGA
Assay type: cell-based
Description: The compounds of the invention were tested in the following assay for their ability to inhibit Axl activity.
Phospho-Akt in-Cell Western Assay
• Cell culture plate: 96 well assay plate (Corning 3610), white, clear bottom, tissue-culture treated. • Cells: Hela cells. • Starvation medium: For Axl stimulation: 0.5% FCS (fetal calf serum) in DMEM, plus Axl/Fc (extracellular domain of AXL fused to immunoglobulin Fc region) (R&D, 154-AL) 500 ng/mL. • For EGF (epidermal growth factor) stimulation: 0.5% FCS in DMEM (Dulbecco's modified Eagles medium). • Poly-L-Lysine 0.01% solution (the working solution): 10 μg/ml, dilute In PBS (phosphate buffered saline). • Axl antibody cross-linking: • 1st: Mouse anti-Axl (R&D, MAB154). • 2nd: Biotin-SP-conjugated AffiniPure goat anti-mouse IgG (H+L) (Jackson ImmunoResearch #115-065-003). • Fixing buffer: 4% formaldehyde in PBS. • Wash buffer: 0.1% TritonX-100 in PBS. • Quenching buffer: 3% H2O2, 0.1% Azide in wash buffer, Azide and hydrogen peroxide (H2O2) are added fresh. • Blocking buffer: 5% BSA in TBST (tris buffered saline plus 0.1% Tween 20). • Primary antibody: Rabbit anti-human Phospho-Akt antibody (Cell Signaling 9271): 1×250 diluted in blocking buffer. • Secondary antibody: HRP (horse radish peroxidase)-conjugated Goat anti-Rabbit secondary, stock solution: Jackson ImmunoResearch (Goat anti-Rabbit HRP, #111-035-144) 1:1 diluted in glycerol, store at −20° C. The working solution: 1×2000 dilution of stock in blocking buffer. • Chemiluminescent working solution (Pierce, 37030): SuperSignal ELISA (enzyme linked immunosorbant assay) Pico Chemiluminescent substrate. • Crystal Violet solution: Stock: 2.5% Crystal violet in methanol, filtered and kept at ambient temperature. The working solution: dilute the stock 1:20 with PBS immediately before use.
10% SDS: working solution: 5% SDS (sodium dodecylsulfate), diluted in PBS
A 96 well TC (tissue culture treated) plate was coated with 10 μg/mL poly-L-Lysine at 37° C. for 30 min, washed twice with PBS, and air-dried for 5 minutes before cells were added. Hela cells were seeded at 10,000 cells/well and the cells were starved in 100 μL starvation medium containing Axl/Fc for 24 hrs.
The cells were pre-treated with test compounds by adding 100 μL of 2× test compound to the starvation medium on the cells. The cells were incubated at 37° C. for 1 hr before stimulation.
The cells were stimulated by Axl-antibody cross-linking as follows: A 5×1st/2nd Axl antibody mixture was made (37.5 μg/mL 1st/100 μg/mL 2 nd) in starvation medium and nutated at 4° C. with thorough mixing for 1-2 hours for clustering. The resulting mix was warmed to 37° C. 50 μL of 5×Axl 1st/2nd of antibody cluster was added to the cells and the cells were incubated at 37° C. for 5 min.
After 5 minutes stimulation, the plate was flicked to remove medium and the plate was tapped onto paper towels. Formaldehyde (4.0% in PBS, 100 μL) was added to fix the cells and the cells were incubated at ambient temperature for 20 min without shaking.
The cells were washed with a plate washer buffer to remove the formaldehyde solution. The plate was flicked to removed excess wash buffer and tapped onto paper towels. Quenching buffer (100 μL) was added to each well and the cells were incubated at ambient temperature for 20 minutes without shaking.
The cells were washed with a plate washer buffer to remove the quenching buffer. Blocking buffer (100 μL) was added and the cells were incubated at ambient temperature for at least an hour with gentle shaking.
The cells were washed with a plate washer buffer and diluted primary antibody (50 μL) was added to each well (blocking buffer was added to the negative control wells instead). The plates were incubated overnight at 4° C. with gentle shaking.
The wash buffer was removed, diluted secondary antibody (100 μL) was added, and the cells were incubated at ambient temperature for 1 hour with gentle shaking. […]

| SMILES | IC50 [nM] |
| --- | --- |
| COc1cc2ncnc(-n3nc(Nc4ccc(Br)nc4)nc3NC(=NC#N)Nc3ccc(Br)nc3)c2cc1OC [compound 58, 1-(6,7-dimethoxy-quinazoline-4-yl)-N^3-(6-bromopyridin-3-yl)-5-(3-(6-bromopyridin-3-yl)-2-cyano-guanadino)-1H-1,2,4-triazole-3-amine] | 1000 to 10000 |
| Cc1cc(Nc2nc(N)n(-c3nccc4occc34)n2)cnc1N1CCC(N2CCCC2)CC1 [compound 53, 1-(furo[3,2-c]pyridine-4-yl)-N^3-(6-(4-(pyrrolidin-1-yl)piperidin-1-yl)-5-methylpyridin-3-yl)-1H-1,2,4-triazole-3,5-diamine] | < 1000 |
| Cc1cc(Nc2nc(N)n(-c3nc(Cl)nc4c(C)csc34)n2)cnc1N1CCN(C2CC3CCC2C3)CC1 (stereo not drawn) [compound 71, 1-(2-chloro-7-methylthienò [3,2-d]pyrimidine-4-yl)-N^3-(5-methyl-6-(4-bicyclo[2.2.1]heptan-2-ylpiperazin-1-yl)pyridine-3-yl)-1H-1,2,4-triazole-3,5-diamine] | < 1000 |
| Cc1csc2c(-n3nc(Nc4ccc(C5CCN(C6CC7CCC6C7)CC5)nc4)nc3N)nc(Cl)nc12 (stereo not drawn) [compound 83, 1-(2-chloro-7-methylthieno [3,2-d]pyrimidine-4-yl)-N^3-(6-(1-bicyclo[2.2.1]heptan-2-ylpiperidin-4-yl)pyridine-3-yl)-1H-1,2,4-triazole-3,5-diamine] | < 1000 |
| COc1cc2ncnc(-n3nc(Nc4ccc(C=CCN5CCCCC5)nc4)nc3N)c2cc1OC [compound 80] | < 1000 |
| Cc1cc(Nc2nc(N)n(-c3nc(Cl)nc4c(C)csc34)n2)cnc1N1CCN(CC2CC2)CC1 [compound 95, 1-(2-chloro-7-methylthieno [3,2-d]pyrimidin-4-yl)-N^3-(6-(4-(cyclopropyl-methyl)piperazin-1-yl)-5-methyl-pyridin-3-yl)-1H-1,2,4-triazole-3,5-diamine] | < 1000 |
| Cc1csc2c(-n3nc(Nc4cnc(N5CCN([C@H]6CC7CCC6C7)CC5)c(Cl)c4)nc3N)ncnc12 (stereo partly drawn) [compound 110, 1-(7-methylthieno [3,2-d]pyrimidin-4-yl)-N^3-(2-(4-(2S)-bicyclo[2.2.1]heptan-2-ylpiperazin-1-yl)-3-chloropyridin-5-yl)-1H-1,2,4-triazole-3,5-diamine] | 10000 to 20000 |
| Cc1cc(Nc2nc(N)n(-c3nc(Cl)nc4c(C)csc34)n2)cnc1N1CCN([C@H]2CC3CCC2C3)[C@@H](C)C1 (stereo partly drawn) [compound 107, 1-(2-chloro-7-methylthieno [3,2-d]pyrimidin-4-yl)-N^3-(2-(3-(S)-methyl-4-(2S)-bicyclo[2.2.1]heptan-2-ylpiperazin-1-yl)-3-methylpyridin-5-yl)-1H-1,2,4-triazole-3,5-diamine] | < 1000 |
| Cc1csc2c(-n3nc(Nc4cnc5c(c4)CN(CC4CC4)CC5)nc3N)nc(Cl)nc12 [compound 101, 1-(2-chloro-7-methylthieno [3,2-d]pyrimidin-4-yl)-N^3-(6-cyclopropyl-methyl-5,6,7,8-tetrahydro-1,6-naphthyridin-3-yl)-1H-1,2,4-triazole-3,5-diamine] | < 1000 |

Other lines, results leading:

| IC50 [nM] | SMILES |
| --- | --- |
| < 1000 | COc1cc2ncnc(-n3nc(Nc4ccc5c(c4)OCCO5)nc3N)c2cc1OC [compound 5, N^3-(2,3-dihydrobenzo [b][1,4]dioxin-6-yl)-1-(6,7-dimethoxy-quinazolin-4-yl)-1H-1,2,4-triazole-3,5-diamine] |
| < 1000 | COc1cc2ncnc(-n3nc(Nc4ccc(C=CCN5CCN(C(C)C)CC5)nc4)nc3N)c2cc1OC [compound 113, 1-(6,7-dimethoxy-quinazoline-4-yl)-N^3-(2-(3-(4-isopropyl-piperazin-1-yl)propen-1-yl)pyridine-5-yl)-1H-1,2,4-triazole-3,5-diamine] |
| < 1000 | Cc1csc2c(-n3nc(Nc4ccc(N5CCN(C6CC7CCC6C7)CC5)nc4)nc3N)nc(Cl)nc12 (stereo not drawn) [compound 24, 1-(2-chloro-7-methylthieno [3,2-d]pyrimidine-4-yl)-N^3-(6-(4-(bicyclo[2.2.1]heptan-2-yl)piperazin-1-yl)pyridin-3-yl)-1H-1,2,4-triazole-3,5-diamine] |
| < 1000 | Cc1csc2c(-n3nc(Nc4cnc5c(c4)CN(CCN(C)C)CC5)nc3N)nc(Cl)nc12 [compound 50, 1-(2-chloro-7-methylthieno [3,2-d]pyrimidine-4-yl)-N^3-(6-(2-dimethyl-aminoethyl)-5,6,7,8-tetrahydro-1,6-naphthyridin-3-yl)-1H-1,2,4-triazole-3,5-diamine] |
| < 1000 | Cc1nc(-n2nc(Nc3cnc(N4CCC(N5CCCC5)CC4)c(C)c3)nc2N)c2ccccc2n1 [compound 55, 1-(2-methyl-quinazolin-4-yl)-N^3-(6-(4-(pyrrolidin-1-yl)piperidin-1-yl)-5-methylpyridin-3-yl)-1H-1,2,4-triazole-3,5-diamine] |
| < 1000 | COc1cc2ncnc(-n3nc(Nc4ccc(C=CCN5CCC(N(C)C)C5)nc4)nc3N)c2cc1OC (stereo not drawn) [compound 79, 1-(6,7-dimethoxy-quinazoline-4-yl)-N^3-(6-(3-(3-(dimethyl-amino)pyrrolidin-1-yl)propenyl)pyridin-3-yl)-1H-1,2,4-triazole-3,5-diamine] |
| < 1000 | Cc1csc2c(-n3nc(Nc4ccc(N5CC6CN(C7CC8CCC7C8)CC6C5)nc4)nc3N)nc(Cl)nc12 (stereo not drawn) [compound 57, 1-(2-chloro-7-methylthieno [3,2-d]pyrimidine-4-yl)-N^3-(6-(5-bicyclo[2.2.1]heptan-2-yl-octahydropyrrol [3,4-c]pyrrolyl)pyridine-3-yl)-1H-1,2,4-triazole-3,5-diamine] |
| < 1000 | Cc1csc2c(-n3nc(Nc4cnc5c(c4)CCC(N4CCCC4)CC5)nc3N)nc(Cl)nc12 (stereo not drawn) [compound 77, 1-(2-chloro-7-methylthieno [3,2-d]pyrimidine-4-yl)-N^3-(7-(pyrrolidin-1-yl)-6,7,8,9-tetrahydro-5H-cyclohepta[b]pyridin-3-yl)-1H-1,2,4-triazole-3,5-diamine] |

Same assay, conditions: Hela cells, phospho-Akt readout; compounds of formula (Ib), Table 2

| IC50 [nM] | SMILES |
| --- | --- |
| < 1000 | Cc1csc2c(-n3nc(N)nc3Nc3ccc(C=CCN4CCC(N5CCN(C)CC5)CC4)nc3)ncnc12 [compound 133, 1-(7-methylthieno[3,2-d]pyrimidin-4-yl)-N^5-(2-(3-(4-(4-methylpiperazin-1-yl)piperidin-1-yl)propen-1-yl)pyridin-5-yl)-1H-1,2,4-triazole-3,5-diamine] |
